Experimental data taken from ChEMBL document CHEMBL3885861, “Open TG-GATES”.

Organism: Rattus norvegicus
Assay: Open TG-GATES - Regimen: Single
Type: toxicity, organism-based, Sprague-Dawley
Set-up: regimen Single, gender Male, age 6 weeks
Conditions: in vivo, po, 30 mg/kg, route gavage, dose level High; for APTT / Bas / Eos / Fbg / Hb / Ht / Lym / MCH / MCHC / Mono / Neu / Plat / RBC / Ret / WBC: tissue Blood; for KIDNEY_L / KIDNEY_R / KIDNEY_TOTAL: tissue Kidney; for LIVER: tissue Liver; for ALP / ALT / AST / BUN / CRE / Ca / Cl / DBIL / GLC / IP / K / LDH / Na / PL / RALB / TBIL / TC / TG / TP / gamma-GTP: tissue Plasma

`O=C(CCCN1CCC(O)(c2ccc(Cl)cc2)CC1)c1ccc(F)cc1` [HALOPERIDOL] gave a TERMINAL_BW (3 h) of 205 g, an APTT (3 h) of 17.2 s and a Bas (3 h) of 0%. It also gave an Eos (3 h) of 0.2%, a Fbg (3 h) of 207.6 mg/dL and a Hb (3 h) of 12.8 g/dL. The Ht (3 h) was 38.4%, the Lym (3 h) was 70.4% and the MCH (3 h) was 21.5 pg. The MCHC (3 h) was 33.3%, the Mono (3 h) was 6% and the Neu (3 h) was 23.4%. For the same compound, the Plat (3 h) was 97 x10_4/uL, the RBC (3 h) was 593.6 x10_4/ul and the Ret (3 h) was 8.9%. It also gave a WBC (3 h) of 57.7 x10_2/uL, a KIDNEY_L (3 h) of 0.9 g and a KIDNEY_R (3 h) of 0.9 g. It also gave a KIDNEY_TOTAL (3 h) of 1.9 g, an LIVER (3 h) of 9.5 g and an ALP (3 h) of 676.8 IU/L. It also gave an ALT (3 h) of 31.4 IU/L, an AST (3 h) of 52 IU/L and a BUN (3 h) of 12.2 mg/dL. For the same compound, the CRE (3 h) was 0.5 mg/dL, the Ca (3 h) was 10.7 mg/dL and the Cl (3 h) was 108.8 meq/L. For the same compound, the DBIL (3 h) was 0.018 mg/dL, the GLC (3 h) was 222.8 mg/dL and the IP (3 h) was 10.5 mg/dL. For the same compound, the K (3 h) was 4.4 meq/L, the LDH (3 h) was 166.8 IU/L and the Na (3 h) was 140.8 meq/L. For the same compound, the PL (3 h) was 157.6 mg/dL, the RALB (3 h) was 3.7 g/dL and the TBIL (3 h) was 0.3 mg/dL. The TC (3 h) was 92.2 mg/dL, the TG (3 h) was 34.6 mg/dL and the TP (3 h) was 5.6 g/dL. The gamma-GTP (3 h) was 1.4 IU/L, the TERMINAL_BW (6 h) was 194.4 g and the APTT (6 h) was 17.2 s. For the same compound, the Bas (6 h) was 0%, the Eos (6 h) was 0.4% and the Fbg (6 h) was 198.5 mg/dL. The Hb (6 h) was 13.9 g/dL, the Ht (6 h) was 41.3% and the Lym (6 h) was 72.6%. The MCH (6 h) was 21.4 pg, the MCHC (6 h) was 33.7% and the Mono (6 h) was 4.4%. It also gave a Neu (6 h) of 22.6%, a Plat (6 h) of 110.6 x10_4/uL and an RBC (6 h) of 647.2 x10_4/ul. It also gave a Ret (6 h) of 9.3%, a WBC (6 h) of 75.5 x10_2/uL and a KIDNEY_L (6 h) of 0.9 g. It also gave a KIDNEY_R (6 h) of 0.9 g, a KIDNEY_TOTAL (6 h) of 1.8 g and an LIVER (6 h) of 8.9 g. It also gave an ALP (6 h) of 742.6 IU/L, an ALT (6 h) of 30.6 IU/L and an AST (6 h) of 59.8 IU/L. For the same compound, the BUN (6 h) was 9.2 mg/dL, the CRE (6 h) was 0.5 mg/dL and the Ca (6 h) was 10.1 mg/dL. It also gave a Cl (6 h) of 108.2 meq/L, a DBIL (6 h) of 0.036 mg/dL and a GLC (6 h) of 215.6 mg/dL. For the same compound, the IP (6 h) was 10.1 mg/dL, the K (6 h) was 4.6 meq/L and the LDH (6 h) was 179.8 IU/L. It also gave a Na (6 h) of 140 meq/L, a PL (6 h) of 133.6 mg/dL and an RALB (6 h) of 3.6 g/dL. It also gave a TBIL (6 h) of 0.3 mg/dL, a TC (6 h) of 77.8 mg/dL and a TG (6 h) of 20 mg/dL. It also gave a TP (6 h) of 5.5 g/dL, a gamma-GTP (6 h) of 1.2 IU/L and a TERMINAL_BW (9 h) of 194.2 g. The APTT (9 h) was 16.9 s, the Bas (9 h) was 0% and the Eos (9 h) was 1.4%. For the same compound, the Fbg (9 h) was 216 mg/dL, the Hb (9 h) was 13.6 g/dL and the Ht (9 h) was 40.7%. For the same compound, the Lym (9 h) was 69%, the MCH (9 h) was 21.9 pg and the MCHC (9 h) was 33.4%. For the same compound, the Mono (9 h) was 5.6%, the Neu (9 h) was 24% and the Plat (9 h) was 104 x10_4/uL. The RBC (9 h) was 623 x10_4/ul, the Ret (9 h) was 8.6% and the WBC (9 h) was 59.3 x10_2/uL. It also gave a KIDNEY_L (9 h) of 0.9 g, a KIDNEY_R (9 h) of 0.9 g and a KIDNEY_TOTAL (9 h) of 1.8 g. For the same compound, the LIVER (9 h) was 8.3 g, the ALP (9 h) was 898.8 IU/L and the ALT (9 h) was 26.8 IU/L. It also gave an AST (9 h) of 53.2 IU/L, a BUN (9 h) of 10.8 mg/dL and a CRE (9 h) of 0.5 mg/dL. It also gave a Ca (9 h) of 9.9 mg/dL, a Cl (9 h) of 108.8 meq/L and a DBIL (9 h) of 0.012 mg/dL. The GLC (9 h) was 201.2 mg/dL, the IP (9 h) was 10.8 mg/dL and the K (9 h) was 4.8 meq/L. It also gave an LDH (9 h) of 180.8 IU/L, a Na (9 h) of 140.6 meq/L and a PL (9 h) of 137.2 mg/dL. It also gave an RALB (9 h) of 3.9 g/dL, a TBIL (9 h) of 0.3 mg/dL and a TC (9 h) of 75.8 mg/dL. It also gave a TG (9 h) of 21.4 mg/dL, a TP (9 h) of 5.6 g/dL and a gamma-GTP (9 h) of 1.2 IU/L. For the same compound, the TERMINAL_BW (24 h) was 194.5 g, the APTT (24 h) was 15.2 s and the Bas (24 h) was 0%. For the same compound, the Eos (24 h) was 0.6%, the Fbg (24 h) was 200.2 mg/dL and the Hb (24 h) was 14.5 g/dL. For the same compound, the Ht (24 h) was 43.1%, the Lym (24 h) was 80.8% and the MCH (24 h) was 21.4 pg. For the same compound, the MCHC (24 h) was 33.7%, the Mono (24 h) was 5.8% and the Neu (24 h) was 12.8%. For the same compound, the Plat (24 h) was 118.2 x10_4/uL, the RBC (24 h) was 680 x10_4/ul and the Ret (24 h) was 7.7%. The WBC (24 h) was 59.7 x10_2/uL, the KIDNEY_L (24 h) was 0.9 g and the KIDNEY_R (24 h) was 0.9 g. The KIDNEY_TOTAL (24 h) was 1.8 g, the LIVER (24 h) was 8.9 g and the ALP (24 h) was 744.8 IU/L. For the same compound, the ALT (24 h) was 30.2 IU/L, the AST (24 h) was 67.8 IU/L and the BUN (24 h) was 28.6 mg/dL. The CRE (24 h) was 0.5 mg/dL, the Ca (24 h) was 11 mg/dL and the Cl (24 h) was 105 meq/L. For the same compound, the DBIL (24 h) was 0.044 mg/dL, the GLC (24 h) was 181 mg/dL and the IP (24 h) was 9.7 mg/dL. The K (24 h) was 5.3 meq/L, the LDH (24 h) was 216.4 IU/L and the Na (24 h) was 140 meq/L. It also gave a PL (24 h) of 142.8 mg/dL, an RALB (24 h) of 4.1 g/dL and a TBIL (24 h) of 0.4 mg/dL. For the same compound, the TC (24 h) was 77 mg/dL, the TG (24 h) was 95 mg/dL and the TP (24 h) was 6.1 g/dL. For the same compound, the gamma-GTP (24 h) was 1 IU/L.
